{
  "source": "paper PMC8501640",
  "about": "“Altered Env conformational dynamics as a mechanism of resistance to peptide-triazole HIV-1 inactivators” (Retrovirology, 2021)",
  "key": {"[1]": {"target": "HxBc2 gp120 WT monomer (Human immunodeficiency virus type 1 group M subtype B, UniProt P04578)", "assay": "Isothermal titration calorimetry, WT gp120", "format": "binding, HIV-1", "details": "25 °C", "method": "(§1) Heats were obtained at 25 °C by injection of 8 μL of PT (100 μM) into a sample cell of a VP-ITC containing 1.4 mL recombinant HxBc2 gp120 (6–8 μM). Solid lines represent fits to a single site binding model.\n(§2) The resulting heat changes upon injection were integrated over a time range of 240 s, and the obtained values were fit to a standard single site-binding model using Origin® software."}, "[2]": {"target": "HxBc2 gp120 V255I monomer (Human immunodeficiency virus type 1 group M subtype B, UniProt P04578, V255I)", "assay": "Isothermal titration calorimetry, V255I gp120", "format": "binding, HIV-1", "method": "as §1, §2"}, "[3]": {"target": "HxBc2 gp120 V255I/S143N monomer (Human immunodeficiency virus type 1 group M subtype B, UniProt P04578, S143N/V255I)", "assay": "Isothermal titration calorimetry, V255I/S143N gp120", "format": "binding, HIV-1", "details": "25 °C", "method": "as §1, §2"}, "[4]": {"target": "HIV-1 HxBc2 gp120 WT monomer (Human immunodeficiency virus type 1 group M subtype B, UniProt P04578)", "assay": "Surface plasmon resonance, WT gp120", "format": "binding", "method": "(§3) SPR experiments were performed on a Biacore 3000 biosensor (Global Cytiva Lifesciences) at 25 °C using PBS-P (10 mM Phosphate, 150 mM NaCl, pH 7.4, 0.005% P-20) as the running buffer. A CM5 sensor chip was docked and derivatized by amine coupling with HIV-1HxBc2 WT and mutant gp120 subunits using freshly prepared 1:1 50 mM NHS (N-hydroxysuccinamide):200 mM EDC (1-ethyl-3-(3-(dimethylamino)propyl) carbodiimide). […] The equilibrium dissociation constant was calculated as KD = k−1/k1.\n(§4) Rate constants k1 and k-1 are defined as they are in the 1:1 binding model, while k2 and k-2 are first order rate constants describing isomerization and de-isomerization, respectively. Equations describing the time course of the interactions can be found in Additional file 1: Method S1. For the fit, it was assumed that the states Env·PT and Env·PT^∗ had the same SPR signal. Rate constants were determined using a least-squares gradient-step algorithm coded in Visual Basic and implemented through Microsoft Excel."}, "[5]": {"target": "HIV-1 HxBc2 gp120 V255I monomer (Human immunodeficiency virus type 1 group M subtype B, UniProt P04578, V255I)", "assay": "Surface plasmon resonance, V255I gp120", "format": "binding", "method": "as §3, §4"}, "[6]": {"target": "HIV-1 HxBc2 gp120 V255I/S143N monomer (Human immunodeficiency virus type 1 group M subtype B, UniProt P04578, S143N/V255I)", "assay": "Surface plasmon resonance, V255I/S143N gp120", "format": "binding", "method": "as §3, §4"}, "[7]": {"test_system": "wild type NL4-3 Env on HEK293T cells", "assay": "gp120 shedding analysis by flow cytometry, wild type Env", "format": "cell-based, HIV-1", "details": "WT NL4-3 Env on HEK293T cells; 37 °C, 2 h; mAb 35O22 flow cytometry; read-out: EC50 of induced gp120 shedding (intact Env trimers remaining)", "method": "(§5) The measurements (mean fluorescence intensity) were obtained by flow cytometry using an anti-Env IgG (mAb 35O22) that recognizes a quaternary epitope at the gp120/gp41 interface.\n(§6) The gp120 shedding assay was performed as described previously. Briefly, three million HEK293T cells per flask were transiently transfected with 4 μg of HIV-1 NL4-3 Env plasmid and transfection reagent FuGENE 6 (Promega). 5 mM EDTA in DPBS was used to detach cells at 24 h and cells were reseeded in 96-well plates with 50,000 cells per well. […] Cells were washed with fresh medium, detached with 5 mM EDTA, and then washed and resuspended in FC buffer (1% BSA and 1 mM EDTA in 10 mM PBS pH 7.4). 2% paraformaldehyde in DPBS was used to fix the cells for 15 min at room temperature. Cells were then washed and resuspended in the FC buffer three times. […] Cell counts and Env staining were assessed in counted cells on a Guava EasyCyte 5HT flow cytometry system (Millipore). Analyzed cells were subjected to forward/side scatter gating based on untreated control populations of identical transfection, and median fluorescence values were obtained using Guava InCyte 3.2 software. Data were analyzed in GraphPad Prism 9 using nonlinear regression fit with dose response-inhibitor equation (4 parameters)."}, "[8]": {"test_system": "S143N NL4-3 Env on HEK293T cells", "assay": "gp120 shedding analysis by flow cytometry, S143N Env", "format": "cell-based, HIV-1", "details": "S143N mutant Env trimer; 50-fold higher than the EC50 value for wild type Env", "method": "as §5, §6"}, "[9]": {"test_system": "V255I NL4-3 Env on HEK293T cells", "assay": "gp120 shedding analysis by flow cytometry, V255I Env", "format": "cell-based, HIV-1", "method": "as §5, §6"}, "[10]": {"test_system": "V255I/S143N NL4-3 Env on HEK293T cells", "assay": "gp120 shedding analysis by flow cytometry, V255I/S143N Env", "format": "cell-based, HIV-1", "method": "as §5, §6"}, "[11]": {"test_system": "CEM-GFP cells", "assay": "WST-1 cytotoxicity assay", "format": "cell-based", "details": "up to concentrations of 125 μM", "method": "The cytotoxicity was determined on CEM-GFP cells via a colorimetric assay to measure the relative proliferation rates of cells in culture. […] After 18 h of incubation, the media containing compounds were discarded and treated with 10% (v/v) WST-1 (a tetrazolium salt) in fresh media for one hour at 37 °C. The cell viability was determined by measuring the absorbance at 450 nm using a Tecan Infinite F50 plate reader.\nFigure S1. […] Data represent means and standard deviations of three independent experiments performed in triplicate."}, "[12]": {"test_system": "BaL.01 viruses", "parameters": "method as in PMID 24330857, PMID 26331669", "details": "ref [16], [21], read-out: EC50 of induced gp120 shedding; cited from earlier work"}},
  "note": "*1 amine or outer side, *2 acyl side, *3 side chain or, on linkers, in order; H or OH if unused. Where a SMILES comes first, the peptide text is derived from it. Bridges are numbered along the chain shown (N, C = ends). [ ]: non-standard residue; d: D form. X1 = O=C([C@@H]1CC(n2cc([C]34[CH]5[CH]6[CH]7[CH]3[Fe]6754389%10[CH]4[CH]3[CH]8[CH]9[CH]4%10)nn2)CN1[*:1])[*:2]",
  "data": [
    {"smiles": "CC[C@H](C)[C@@H]1NC(=O)[C@H](CC(N)=O)NC(=O)[C@@H](N)CC(=O)NCCCC[C@@H](C(N)=O)NC(=O)[C@H](Cc2c[nH]c3ccccc23)NC(=O)[C@@H]2CC(n3cc([C]45[CH]6[CH]7[CH]8[CH]4[Fe]786549%10%11[CH]5[CH]4[CH]9[CH]%10[CH]5%11)nn3)CN2C1=O", "note": "(some centres unmarked) [AAR029b] (H-DNI[X1]WK-NH2; lactam 1-6 (inferred))", "values": [
      {"measurement": "ITC binding stoichiometry n", "setting": "[1]", "value": "1.1 ± 0.04"},
      {"measurement": "ITC −TΔS", "setting": "[1]", "value": "18.8 ± 3.77", "unit": "kJ/mol"},
      {"measurement": "ITC binding stoichiometry n", "setting": "[2]; V255I gp120 (HxBc2), 25 °C", "value": "1.0 ± 0.01"},
      {"measurement": "ITC −TΔS", "setting": "[2]; V255I gp120 (HxBc2), 25 °C", "value": "1.8 ± 1.26", "unit": "kJ/mol"},
      {"measurement": "absolute impact of V255I substitution on enthalpy (ΔH) and entropy (TΔS)", "setting": "[2]; mutant vs wild type gp120, ITC", "value": "14.6 to 18.8", "unit": "kJ/mol"},
      {"measurement": "ITC binding stoichiometry n", "setting": "[3]", "value": "1.1 ± 0.04"},
      {"measurement": "ITC −TΔS", "setting": "[3]", "value": "4.18 ± 3.81", "unit": "kJ/mol"},
      {"measurement": "SPR k1", "setting": "[4]; PT association", "value": "11 (M^−1 s^−1) × 10^–5"},
      {"measurement": "SPR k-1", "setting": "[4]; PT dissociation", "value": "8.3 (s^−1) × 10^3"},
      {"measurement": "SPR k1", "setting": "[5]; V255I gp120, PT association", "value": "5.4 (M^−1 s^−1) × 10^–5"},
      {"measurement": "SPR k-1", "setting": "[5]; V255I gp120, PT dissociation", "value": "130 (s^−1) × 10^3"},
      {"measurement": "decrease in binding affinity (KD) by the V255I mutation, SPR", "setting": "[5]; V255I vs WT gp120", "value": 31, "unit": "fold"},
      {"measurement": "SPR k1", "setting": "[6]; PT association", "value": "3.6 (M^−1 s^−1) × 10^–5"},
      {"measurement": "SPR k-1", "setting": "[6]; PT dissociation", "value": "110 (s^−1) × 10^3"},
      {"measurement": "EC50", "setting": "[7]", "value": "0.249 ± 0.075", "unit": "µM"},
      {"measurement": "disruption of Env trimer (shedding) at high concentration", "setting": "[8]", "value": "only minimal disruption"},
      {"measurement": "decrease in sensitivity to ligand-induced shedding compared to wild type Env", "setting": "[9]", "value": "greater than tenfold"},
      {"measurement": "decrease in sensitivity to ligand-induced shedding compared to wild type Env", "setting": "[10]", "value": "greater than tenfold"},
      {"measurement": "cytotoxicity", "setting": "[11]", "value": "minimal"},
      {"measurement": "EC50", "setting": "[12]", "value": 0.315, "unit": "µM"}
    ]}
  ]
}
